# Source: paper PMC5218480 (PLoS ONE, 2017)
# System: MV-4-11 cells
# Assay: Gene expression microarray analysis (Affymetrix PrimeView) and GSEA
# Format: cell-based, human
# Set-up: RFU PODN (11730768_x_at) / Fold change /veh PODN (11730768_x_at) / RFU LINC00158 (11744669_a_at) / Fold change /veh LINC00158 (11744669_a_at) / RFU DUSP10 (11751237_a_at) / Fold change /veh DUSP10 (11751237_a_at) / RFU ID3 (11757404_x_at) / Fold change /veh ID3 (11757404_x_at) / RFU PLEKHG5 (11737974_s_at) / Fold change /veh PLEKHG5 (11737974_s_at) / RFU LRRC4B (11730491_at) / Fold change /veh LRRC4B (11730491_at) / RFU GIMAP4 (11747438_a_at) / Fold change /veh GIMAP4 (11747438_a_at) / RFU KRT8 (11758183_x_at) / Fold change /veh KRT8 (11758183_x_at) / RFU CNN1 (11734310_a_at) / Fold change /veh CNN1 (11734310_a_at) / RFU VPS37D (11726825_at) / Fold change /veh VPS37D (11726825_at) / RFU C10orf10 (11716522_x_at) / Fold change /veh C10orf10 (11716522_x_at) / RFU KIR2DL2 /// KIR2DL4 /// KIR2DL5A /// KIR2DL5B /// KIR2DS1 /// KIR2DS2 /// KIR2DS3 /// KIR2DS4 /// KIR3DL3 /// KIR3DL3 /// KIR3DS1 (11738374_at) / Fold change /veh KIR2DL2 /// KIR2DL4 /// KIR2DL5A /// KIR2DL5B /// KIR2DS1 /// KIR2DS2 /// KIR2DS3 /// KIR2DS4 /// KIR3DL3 /// KIR3DL3 /// KIR3DS1 (11738374_at) / RFU C1QL1 (11718748_at) / Fold change /veh C1QL1 (11718748_at) / RFU TMPRSS4 (11747572_a_at) / Fold change /veh TMPRSS4 (11747572_a_at) / RFU HAMP (11756126_x_at) / Fold change /veh HAMP (11756126_x_at) / RFU RNFT2 (11725882_a_at) / Fold change /veh RNFT2 (11725882_a_at) / RFU NR4A2 (11747474_a_at) / Fold change /veh NR4A2 (11747474_a_at) / RFU ABCC12 (11746883_a_at) / Fold change /veh ABCC12 (11746883_a_at) / RFU TMEM136 (11760407_x_at) / Fold change /veh TMEM136 (11760407_x_at) / RFU CLDN22 /// WWC2 (11732394_at) / Fold change /veh CLDN22 /// WWC2 (11732394_at) / RFU HLA-DPB1 (11760878_x_at) / Fold change /veh HLA-DPB1 (11760878_x_at) / RFU SPINT1 (11716480_a_at) / Fold change /veh SPINT1 (11716480_a_at) / RFU GAP43 (11754022_s_at) / Fold change /veh GAP43 (11754022_s_at) / RFU A4GNT (11735810_at) / Fold change /veh A4GNT (11735810_at) / RFU PRB3 (11715151_x_at) / Fold change /veh PRB3 (11715151_x_at) / RFU TUBB4B (11761932_at) / Fold change /veh TUBB4B (11761932_at) / RFU CAPN14 (11732068_a_at) / Fold change /veh CAPN14 (11732068_a_at) / RFU TMCC2 (11721928_a_at) / Fold change /veh TMCC2 (11721928_a_at) / RFU IRGQ (11745062_a_at) / Fold change /veh IRGQ (11745062_a_at) / RFU FAM174B (11720279_a_at) / Fold change /veh FAM174B (11720279_a_at) / RFU TMPRSS4 (11748680_a_at) / Fold change /veh TMPRSS4 (11748680_a_at) / RFU FAM212B (11763350_a_at) / Fold change /veh FAM212B (11763350_a_at) / RFU PLEKHG5 (11743358_a_at) / Fold change /veh PLEKHG5 (11743358_a_at) / RFU ZSCAN30 (11745921_a_at) / Fold change /veh ZSCAN30 (11745921_a_at) / RFU CMKLR1 (11741424_a_at) / Fold change /veh CMKLR1 (11741424_a_at) / RFU LOC101060620 /// MAPK8IP1 (11723275_at) / Fold change /veh LOC101060620 /// MAPK8IP1 (11723275_at) / RFU SPTSSB (11747773_x_at) / Fold change /veh SPTSSB (11747773_x_at) / RFU PRSS12 (11739890_at) / Fold change /veh PRSS12 (11739890_at) / RFU BIN1 (11741810_x_at) / Fold change /veh BIN1 (11741810_x_at) / RFU WNT11 (11732464_a_at) / Fold change /veh WNT11 (11732464_a_at) / RFU C10orf10 (11716521_a_at) / Fold change /veh C10orf10 (11716521_a_at) / RFU C5orf56 (11738089_at) / Fold change /veh C5orf56 (11738089_at) / RFU CYB561 (11721691_x_at) / Fold change /veh CYB561 (11721691_x_at) / RFU ANKRD19P (11752326_a_at) / Fold change /veh ANKRD19P (11752326_a_at) / RFU OR2T12 /// OR2T33 /// OR2T8 (11738714_s_at) / Fold change /veh OR2T12 /// OR2T33 /// OR2T8 (11738714_s_at) / RFU VCAN (11748164_a_at) / Fold change /veh VCAN (11748164_a_at) / RFU JSRP1 (11732532_at) / Fold change /veh JSRP1 (11732532_at) / RFU KRTAP10-11 (11738290_x_at) / Fold change /veh KRTAP10-11 (11738290_x_at) / RFU MYO3A (11730013_a_at) / Fold change /veh MYO3A (11730013_a_at) / RFU EBF3 (11725865_a_at) / Fold change /veh EBF3 (11725865_a_at) / RFU CAMK2N1 (11719241_x_at) / Fold change /veh CAMK2N1 (11719241_x_at) / RFU C5orf56 (11738088_a_at) / Fold change /veh C5orf56 (11738088_a_at) / RFU OLFML3 (11715873_a_at) / Fold change /veh OLFML3 (11715873_a_at) / RFU LOC100653217 /// NTM (11731650_a_at) / Fold change /veh LOC100653217 /// NTM (11731650_a_at) / RFU MAPK11 (11762145_a_at) / Fold change /veh MAPK11 (11762145_a_at) / RFU FIZ1 (11724087_x_at) / Fold change /veh FIZ1 (11724087_x_at) / RFU OASL (11726364_x_at) / Fold change /veh OASL (11726364_x_at) / RFU SOX15 (11748057_x_at) / Fold change /veh SOX15 (11748057_x_at) / RFU CD79A (11719716_a_at) / Fold change /veh CD79A (11719716_a_at) / RFU HIST1H1D (11736915_at) / Fold change /veh HIST1H1D (11736915_at) / RFU CASKIN2 (11723855_a_at) / Fold change /veh CASKIN2 (11723855_a_at) / RFU LOC730098 (11760151_x_at) / Fold change /veh LOC730098 (11760151_x_at) / RFU OR4N2 (11742367_at) / Fold change /veh OR4N2 (11742367_at) / RFU PRRT2 (11749266_a_at) / Fold change /veh PRRT2 (11749266_a_at) / RFU SNX32 (11753110_a_at) / Fold change /veh SNX32 (11753110_a_at) / RFU CDHR5 (11726645_a_at) / Fold change /veh CDHR5 (11726645_a_at) / RFU RCAN1 (11760418_a_at) / Fold change /veh RCAN1 (11760418_a_at) / RFU FAM167A (11723789_a_at) / Fold change /veh FAM167A (11723789_a_at) / RFU FAM26E (11764081_at) / Fold change /veh FAM26E (11764081_at) / RFU ISYNA1 (11749810_s_at) / Fold change /veh ISYNA1 (11749810_s_at) / RFU ACY1 (11761880_at) / Fold change /veh ACY1 (11761880_at) / RFU 11764098_at / Fold change /veh 11764098_at / RFU SAMD14 (11745864_x_at) / Fold change /veh SAMD14 (11745864_x_at) / RFU NPB (11741838_a_at) / Fold change /veh NPB (11741838_a_at) / RFU TMPRSS6 (11731388_a_at) / Fold change /veh TMPRSS6 (11731388_a_at) / RFU KRTAP10-2 (11738614_at) / Fold change /veh KRTAP10-2 (11738614_at) / RFU ARHGAP8 /// PRR5-ARHGAP8 (11727945_x_at) / Fold change /veh ARHGAP8 /// PRR5-ARHGAP8 (11727945_x_at) / RFU KRTAP5-7 /// NADSYN1 (11734609_at) / Fold change /veh KRTAP5-7 /// NADSYN1 (11734609_at) / RFU RASL12 (11751679_a_at) / Fold change /veh RASL12 (11751679_a_at) / RFU CDKN2B (11736163_a_at) / Fold change /veh CDKN2B (11736163_a_at) / RFU PRF1 (11729649_at) / Fold change /veh PRF1 (11729649_at) / RFU, ZNF638 /// ZNF638-IT1 / Fold change vs veh, ZNF638 /// ZNF638-IT1 / RFU, PANK3 / Fold change vs veh, PANK3 / RFU, SH3YL1 / Fold change vs veh, SH3YL1 / RFU, ZEB2 / Fold change vs veh, ZEB2 / RFU, NRIP1 / Fold change vs veh, NRIP1 / RFU, PTTG1IP / Fold change vs veh, PTTG1IP / RFU, CAPN2 / Fold change vs veh, CAPN2 / RFU, MED14 / Fold change vs veh, MED14 / RFU, SNORA58 / Fold change vs veh, SNORA58 / RFU, C1orf63 / Fold change vs veh, C1orf63 / RFU, LRRFIP1 / Fold change vs veh, LRRFIP1 / RFU, NDUFAF7 / Fold change vs veh, NDUFAF7 / RFU, SLC12A2 / Fold change vs veh, SLC12A2 / RFU, IBTK / Fold change vs veh, IBTK / RFU, ESF1 / Fold change vs veh, ESF1 / Fold change vs veh, TMEM50B / RFU, TAOK1 / Fold change vs veh, TAOK1 / RFU, ACBD3 / Fold change vs veh, ACBD3 / RFU, TMA16 / Fold change vs veh, TMA16 / RFU, RWDD3 / Fold change vs veh, RWDD3 / RFU, BCAT1 / Fold change vs veh, BCAT1 / RFU, EDEM3 / Fold change vs veh, EDEM3 / RFU, TMEM33 / Fold change vs veh, TMEM33 / RFU, WDR75 / Fold change vs veh, WDR75 / RFU, AHCTF1 / Fold change vs veh, AHCTF1 / RFU, TFRC / Fold change vs veh, TFRC / RFU, ZDHHC17 / Fold change vs veh, ZDHHC17 / RFU, NOM1 / Fold change vs veh, NOM1 / RFU, ARL8B / Fold change vs veh, ARL8B / RFU, ZBTB11 / Fold change vs veh, ZBTB11 / RFU, TAMM41 / Fold change vs veh, TAMM41 / RFU, KIAA1704 /// LOC100996395 / Fold change vs veh, KIAA1704 /// LOC100996395 / RFU, ING1 / Fold change vs veh, ING1 / RFU, TRMT61B / Fold change vs veh, TRMT61B / RFU, FUBP3 / Fold change vs veh, FUBP3 / RFU, TP53 / Fold change vs veh, TP53 / RFU, TNKS2 / Fold change vs veh, TNKS2 / RFU, ZFP14 / Fold change vs veh, ZFP14 / RFU, ACTR2 / Fold change vs veh, ACTR2 / RFU, PPP3R1 / Fold change vs veh, PPP3R1 / RFU, PIK3R1 / Fold change vs veh, PIK3R1 / RFU, HNRNPA1 / Fold change vs veh, HNRNPA1 / RFU, RNF170 / Fold change vs veh, RNF170 / RFU, ZNF28 / Fold change vs veh, ZNF28 / RFU, RNGTT / Fold change vs veh, RNGTT / RFU, OGT / Fold change vs veh, OGT / RFU, BRD1 / Fold change vs veh, BRD1 / RFU, MARS / Fold change vs veh, MARS / RFU, ZNF655 / Fold change vs veh, ZNF655 / RFU, FAHD1 / Fold change vs veh, FAHD1 / RFU, BDP1 / Fold change vs veh, BDP1 / RFU, LRRCC1 / Fold change vs veh, LRRCC1 / RFU, ARID1A / Fold change vs veh, ARID1A / RFU, ZNF146 / Fold change vs veh, ZNF146 / RFU, ZNF330 / Fold change vs veh, ZNF330 / RFU, GPN3 / Fold change vs veh, GPN3 / RFU, C9orf123 / Fold change vs veh, C9orf123 / RFU, N4BP2L2 / Fold change vs veh, N4BP2L2 / RFU, ARFIP1 / Fold change vs veh, ARFIP1 / RFU, FAM179B / Fold change vs veh, FAM179B / RFU, BCL10 / Fold change vs veh, BCL10 / RFU, UHRF1BP1L / Fold change vs veh, UHRF1BP1L / RFU, BET1 / Fold change vs veh, BET1 / RFU, CNOT2 / Fold change vs veh, CNOT2 / RFU, ZNF268 / Fold change vs veh, ZNF268 / Fold change vs veh, ZNF507 / RFU, DGCR2 / Fold change vs veh, DGCR2 / RFU, WDSUB1 / Fold change vs veh, WDSUB1 / Fold change vs veh, HSP90B1 /// MIR3652 / RFU, ADSS / Fold change vs veh, ADSS / RFU, GK / Fold change vs veh, GK / RFU, ZNF148 / Fold change vs veh, ZNF148 / RFU, TAF9 / Fold change vs veh, TAF9 / RFU, SLC1A5 / Fold change vs veh, SLC1A5 / RFU, SLMO2 / Fold change vs veh, SLMO2 / RFU, ABCC4 / Fold change vs veh, ABCC4 / RFU, LOC101060439 /// RAP1B / Fold change vs veh, LOC101060439 /// RAP1B / RFU, RFX7 / Fold change vs veh, RFX7 / RFU, GTPBP10 / Fold change vs veh, GTPBP10 / RFU, CNEP1R1 / Fold change vs veh, CNEP1R1 / RFU, BIVM-ERCC5 /// ERCC5 / Fold change vs veh, BIVM-ERCC5 /// ERCC5 / RFU, ILF3 / Fold change vs veh, ILF3 / RFU 11762660_at / Fold change /veh 11762660_at / RFU VCAN (11757783_s_at) / Fold change /veh VCAN (11757783_s_at) / RFU DDX43 (11728927_at) / Fold change /veh DDX43 (11728927_at) / RFU KRT8 (11758188_x_at) / Fold change /veh KRT8 (11758188_x_at) / RFU NKD1 (11759106_at) / Fold change /veh NKD1 (11759106_at) / RFU SRD5A1 (11742802_a_at) / Fold change /veh SRD5A1 (11742802_a_at) / RFU TPSAB1 /// TPSB2 (11721975_s_at) / Fold change /veh TPSAB1 /// TPSB2 (11721975_s_at) / RFU GSTM3 (11746129_a_at) / Fold change /veh GSTM3 (11746129_a_at) / RFU IL23R (11737362_x_at) / Fold change /veh IL23R (11737362_x_at) / RFU TMEM51 (11727254_a_at) / Fold change /veh TMEM51 (11727254_a_at) / RFU PIWIL2 (11732686_x_at) / Fold change /veh PIWIL2 (11732686_x_at) / RFU ORM1 (11744905_x_at) / Fold change /veh ORM1 (11744905_x_at) / RFU CCDC152 (11743942_at) / Fold change /veh CCDC152 (11743942_at) / RFU ECM1 (11717891_a_at) / Fold change /veh ECM1 (11717891_a_at) / RFU IL23R (11748794_a_at) / Fold change /veh IL23R (11748794_a_at) / RFU TNFAIP8L3 (11732012_x_at) / Fold change /veh TNFAIP8L3 (11732012_x_at) / RFU MBOAT4 (11741988_at) / Fold change /veh MBOAT4 (11741988_at) / RFU 11764193_at / Fold change /veh 11764193_at / RFU TMEM53 (11763286_at) / Fold change /veh TMEM53 (11763286_at) / RFU MAGEB2 (11727129_at) / Fold change /veh MAGEB2 (11727129_at) / RFU TMEM200A (11744735_a_at) / Fold change /veh TMEM200A (11744735_a_at) / RFU CCDC152 (11751479_a_at) / Fold change /veh CCDC152 (11751479_a_at) / RFU FAM211A (11726209_a_at) / Fold change /veh FAM211A (11726209_a_at) / RFU RGS16 (11746705_a_at) / Fold change /veh RGS16 (11746705_a_at) / RFU VCAN (11755009_s_at) / Fold change /veh VCAN (11755009_s_at) / RFU RHOB (11743442_s_at) / Fold change /veh RHOB (11743442_s_at) / RFU RGS16 (11720943_a_at) / Fold change /veh RGS16 (11720943_a_at) / RFU RGS16 (11720944_at) / Fold change /veh RGS16 (11720944_at) / RFU, VPS4B / Fold change vs veh, VPS4B / RFU, CREB1 / Fold change vs veh, CREB1 / RFU, DNAJC13 / Fold change vs veh, DNAJC13 / RFU, GNAQ / Fold change vs veh, GNAQ / RFU, CDK5R1 / Fold change vs veh, CDK5R1 / RFU, ZRANB3 / Fold change vs veh, ZRANB3 / RFU, CUL4A / Fold change vs veh, CUL4A / RFU, CCNY / Fold change vs veh, CCNY / RFU, UFL1 / Fold change vs veh, UFL1 / RFU, COG3 / Fold change vs veh, COG3 / RFU, DIAPH2 / Fold change vs veh, DIAPH2 / RFU, SKA2 / Fold change vs veh, SKA2 / RFU, AFF3 / Fold change vs veh, AFF3 / RFU, LMF1 / Fold change vs veh, LMF1 / RFU, IPO11 / Fold change vs veh, IPO11 / RFU, DFFB / Fold change vs veh, DFFB / RFU, FOXP1 / Fold change vs veh, FOXP1 / RFU, CARD8 / Fold change vs veh, CARD8 / RFU, STRN3 / Fold change vs veh, STRN3 / RFU, ADK / Fold change vs veh, ADK / RFU, RASSF2 / Fold change vs veh, RASSF2 / RFU, WIPF1 / Fold change vs veh, WIPF1 / RFU, LARP1B / Fold change vs veh, LARP1B / RFU, RASA1 / Fold change vs veh, RASA1 / RFU, RB1 / Fold change vs veh, RB1 / RFU, PPFIA1 / Fold change vs veh, PPFIA1 / RFU, MAT2A / Fold change vs veh, MAT2A / RFU, CCT5 / Fold change vs veh, CCT5 / RFU, WDR92 / Fold change vs veh, WDR92 / RFU, CUX1 / Fold change vs veh, CUX1 / RFU, TTC7A / Fold change vs veh, TTC7A / RFU, TMEM135 / Fold change vs veh, TMEM135 / RFU, DEPTOR / Fold change vs veh, DEPTOR / RFU, CPM / Fold change vs veh, CPM / RFU, DNAJB6 / Fold change vs veh, DNAJB6 / RFU, CACNA2D3 / Fold change vs veh, CACNA2D3 / RFU, DTX4 / Fold change vs veh, DTX4 / RFU, TFCP2 / Fold change vs veh, TFCP2 / RFU, GMCL1 /// GMCL1P1 / Fold change vs veh, GMCL1 /// GMCL1P1 / RFU, AEBP2 / Fold change vs veh, AEBP2 / RFU, SNHG1 /// SNORD22 /// SNORD25 /// SNORD26 /// SNORD27 /// SNORD28 /// SNORD29 /// SNORD31 / Fold change vs veh, SNHG1 /// SNORD22 /// SNORD25 /// SNORD26 /// SNORD27 /// SNORD28 /// SNORD29 /// SNORD31 / Fold change (Aza/veh), C12orf56 (ProbeSet 11735607_a_at) / Fold change (ACY-1035/veh), C12orf56 (ProbeSet 11735607_a_at) / Fold change (Aza/veh), FGFR1OP (ProbeSet 11751329_s_at) / Fold change (ACY-1035/veh), FGFR1OP (ProbeSet 11751329_s_at) / Fold change (Aza/veh), VPS36 (ProbeSet 11739960_a_at) / Fold change (ACY-1035/veh), VPS36 (ProbeSet 11739960_a_at) / RFU SYPL1 (11715823_x_at) / Fold change /veh SYPL1 (11715823_x_at) / RFU IGFBP7 (11715501_s_at) / Fold change /veh IGFBP7 (11715501_s_at) / RFU REEP3 (11722064_at) / Fold change /veh REEP3 (11722064_at) / RFU IGLL1 (11728026_x_at) / Fold change /veh IGLL1 (11728026_x_at): dose or concentration left out as unconfirmed
# Details: ProbeSet 11753234_a_at; LIST B
compound,measurement,value
Nc1ccc(-c2cccs2)cc1NC(=O)c1ccc2c(c1)cc(C1CC1)n2CCN1CCOCC1 [ACY-1035],"Fold change vs veh, TAMM41",0.90
